The values below come from ChEMBL document CHEMBL1201862, “PubChem BioAssay data set” (2004).

Among the test systems are ACHN; CCRF-CEM; DU-145; HOP-62; HOP-92; KM12; MDA-MB-435; MDA-N; NCI-H226; NCI-H23; OVCAR-4; OVCAR-8; SF-295; SF-539; SNB-19; SNB-75; T47D; UACC-257; UACC-62; HL-60.
Holding throughout (experiment): NCI anticancer screen, dose series, 48 h

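Cultured in 96-well plates, cells were exposed to test compound for 48 hours across five concentrations. GI50: concentration for 50% inhibition of growth.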 Active and inactive are the calls of the source. Cut-off read from the data, not from the text of the source: active = GI50 up to about 1.1 µM and inactive = higher.

As for `O=C1c2ccccc2-n2c1nc1ccc(Cl)cc1c2=O`, the GI50 in the experiment on ACHN is > 100 µM (inactive); with CCRF-CEM, 3.2 µM (inactive); in the experiment with DU-145 it was > 100 µM (inactive); with HOP-62, 30.8 µM (inactive); in the experiment with HOP-92, 45.3 µM (inactive); in the experiment on KM12 it was > 100 µM (inactive). Moreover, the GI50 with MDA-MB-435 was 15.6 µM (inactive); with MDA-N, 16.6 µM (inactive); in the experiment with NCI-H226, > 100 µM (inactive); with NCI-H23, 66.2 µM (inactive); with OVCAR-4, > 100 µM (inactive); in the experiment on OVCAR-8, 35.2 µM (inactive). The GI50 with SF-295 was 42.3 µM (inactive); in the experiment on SF-539, > 100 µM (inactive); with SNB-19, > 100 µM (inactive); in the experiment with SNB-75, 27.5 µM (inactive); in the experiment on T47D it was 0.474 µM (active); in the experiment on UACC-257 it was 42.1 µM (inactive). Also, the GI50 in the experiment with UACC-62 is 16.3 µM (inactive).
As to `CCCC(=O)Nc1ccc2c(c1)CN1C(=O)c3ccccc3C1=N2`, the GI50 in the experiment on ACHN, with DU-145, with HL-60, in the experiment with HOP-62, with HOP-92 and in the experiment on KM12 was > 100 µM (inactive) each time. In addition, the GI50 in the experiment with MDA-MB-435, with MDA-N, with NCI-H226, in the experiment on NCI-H23, in the experiment on OVCAR-4 and in the experiment with OVCAR-8 was > 100 µM (inactive) in each case. For the same compound, the GI50 in the experiment with SF-295 is 69.5 µM (inactive); in the experiment with SF-539 it was > 100 µM (inactive); in the experiment with SNB-19 it was > 100 µM (inactive); in the experiment with SNB-75 it was 49.5 µM (inactive); in the experiment with T47D, > 100 µM (inactive); with UACC-257, > 100 µM (inactive). Moreover, the GI50 in the experiment on UACC-62 was > 100 µM (inactive).
Take `COc1ccc(CC(N)c2ccc(OC)cc2)cc1` (stereo not given): the GI50 in the experiment with ACHN is > 100 µM (inactive); in the experiment with CCRF-CEM, 70.5 µM (inactive); with DU-145 it was > 100 µM (inactive); with HL-60 it was 49.7 µM (inactive); in the experiment on HOP-62, > 100 µM (inactive); with HOP-92 it was 29.4 µM (inactive). For the same compound, the GI50 is 50 µM (inactive) in the experiment on KM12; 37.2 µM (inactive) with MDA-MB-435; 36.8 µM (inactive) in the experiment with MDA-N; 76.2 µM (inactive) with NCI-H226; > 100 µM (inactive) with NCI-H23; > 100 µM (inactive) in the experiment with OVCAR-4. For the same compound, the GI50 in the experiment with OVCAR-8 is > 100 µM (inactive); with SF-295, > 100 µM (inactive); in the experiment on SNB-19, > 100 µM (inactive); with SNB-75 it was 77.1 µM (inactive); in the experiment on T47D, 46.3 µM (inactive); in the experiment on UACC-257, 42 µM (inactive). Also, the GI50 in the experiment with UACC-62 was 71.3 µM (inactive).
For the compound `O=C(N/N=C/c1ccc(Cl)cc1)c1ccccc1Nc1ccccc1C(=O)N/N=C/c1ccc(Cl)cc1`, the GI50 in the experiment on ACHN, with CCRF-CEM, in the experiment with DU-145, in the experiment with HOP-62, with HOP-92 and in the experiment with KM12 was > 100 µM (inactive) in each case. For the same compound, the GI50 with MDA-MB-435, with MDA-N, with NCI-H226, in the experiment with NCI-H23, in the experiment on OVCAR-4 and in the experiment on OVCAR-8 was > 100 µM (inactive) each time. In addition, the GI50 in the experiment with SF-295 is 54 µM (inactive); in the experiment with SNB-19, > 100 µM (inactive); with SNB-75, > 100 µM (inactive); in the experiment on T47D it was > 100 µM (inactive); in the experiment with UACC-257, > 100 µM (inactive); in the experiment on UACC-62, > 100 µM (inactive).
Turning to `CC(C)(C)C1=NC(=P(c2ccccc2)(c2ccccc2)c2ccccc2)C(=O)O1`, the GI50 in the experiment on ACHN, in the experiment with CCRF-CEM, in the experiment on DU-145, in the experiment with HL-60, in the experiment on HOP-62 and in the experiment with HOP-92 was > 100 µM (inactive) each time. In addition, the GI50 with KM12, in the experiment on MDA-MB-435, in the experiment on MDA-N, in the experiment on NCI-H226, with NCI-H23 and in the experiment with OVCAR-8 was > 100 µM (inactive) each time. Further, the GI50 in the experiment on SF-295 was > 100 µM (inactive); in the experiment with SNB-19, > 100 µM (inactive); in the experiment with SNB-75, 6.21 µM (inactive); in the experiment with T47D it was > 100 µM (inactive); in the experiment with UACC-257, > 100 µM (inactive); with UACC-62 it was > 100 µM (inactive).
As for `CC1OC(OC2C(O)COC(OC3C(C)OC(OC4C(OC(=O)[C@]56CCC(C)(C)C[C@@H]5C5=CCC7[C@@]8(C)C[C@H](O)[C@H](OC9OC(CO)C(O)C(O)C9O)[C@@](C)(CO)[C@@H]8CC[C@@]7(C)[C@]5(C)CC6)OCC(O)C4O)C(O)C3O)C2O)C(O)C(O)C1O` (stereo not given in full), the GI50 in the experiment with ACHN was 21.2 µM (inactive); in the experiment with CCRF-CEM it was 20.6 µM (inactive); in the experiment with DU-145 it was 19.1 µM (inactive); in the experiment with HOP-62 it was 18.3 µM (inactive); in the experiment on HOP-92 it was 23.7 µM (inactive); in the experiment with KM12 it was 35.5 µM (inactive). For the same compound, the GI50 in the experiment with MDA-MB-435 was 23.4 µM (inactive); in the experiment on MDA-N it was 20.5 µM (inactive); in the experiment on NCI-H226, 25.1 µM (inactive); in the experiment with NCI-H23, 28.2 µM (inactive); in the experiment on OVCAR-4, 20.8 µM (inactive); in the experiment with OVCAR-8 it was 18.8 µM (inactive). Moreover, the GI50 in the experiment on SF-295 was 23.9 µM (inactive); in the experiment with SF-539, 22.2 µM (inactive); in the experiment with SNB-19, 21.8 µM (inactive); with SNB-75 it was 20 µM (inactive); in the experiment on T47D, 22 µM (inactive); in the experiment with UACC-257, 17.5 µM (inactive). In the experiment on UACC-62, the GI50 is 20.8 µM (inactive).
In the case of `CCCCCCCC(CC(=O)O)OC(=O)CC(CCCCCCC)OC1OC(C)C(O)C(O)C1OC1OC(C)C(O)C(O)C1O` (stereo not given), the GI50 in the experiment on ACHN was > 100 µM (inactive); in the experiment on CCRF-CEM it was 79.4 µM (inactive); in the experiment with DU-145 it was > 100 µM (inactive); with HOP-62, > 100 µM (inactive); in the experiment with HOP-92, > 100 µM (inactive); in the experiment on KM12, > 100 µM (inactive). The GI50 in the experiment with MDA-MB-435, with MDA-N, with NCI-H226, in the experiment with NCI-H23, with OVCAR-8 and with SF-295 was > 100 µM (inactive) throughout. The GI50 was 39 µM (inactive) with SF-539; > 100 µM (inactive) in the experiment with SNB-19; > 100 µM (inactive) in the experiment on SNB-75; > 100 µM (inactive) in the experiment with T47D; > 100 µM (inactive) with UACC-257; > 100 µM (inactive) in the experiment with UACC-62.
